According to ChEMBL document CHEMBL5108024, “New C-6 functionalized quinoline NorA inhibitors strongly synergize with ciprofloxacin against planktonic and biofilm growing resistant Staphylococcus aureus strains” (Eur J Med Chem, 2022):
≈ marks a conversion by molar mass, not a printed value. Where “and” joins values, the source holds several entries; their conditions need not be identical. Equal entries are not always repeated. Calls of active or inactive are those of the source. The calls are words filed in the database; no cut-off is given here.

Assays:
Staphylococcus aureus [1] = test: Inhibition of EtBr efflux in ciprofloxacin-resistant Staphylococcus aureus 1199B overexpressing norA and harboring A116E grlA mutant assessed as reduction in fluorescence intensity at 50 uM measured for 5 mins by microplate reader analysis relative to control; format: functional
Staphylococcus aureus [2] = test: Inhibition of EtBr efflux in ciprofloxacin-resistant Staphylococcus aureus 1199B overexpressing norA and harboring A116E grlA mutant assessed as reduction in fluorescence intensity at 10 uM measured for 5 mins by microplate reader analysis relative to control; format: functional
Staphylococcus aureus [3] = test: Antibacterial activity against ciprofloxacin-resistant Staphylococcus aureus 1199B overexpressing norA and harboring A116E grlA mutant assessed as inhibition of bacterial growth by broth microdilution method; format: functional
Staphylococcus aureus [4] = test: Synergistic antibiofilm activity against wild type Staphylococcus aureus 1199 assessed as biofilm eradication by measuring ciprofloxacin MBEC at 3.13 ug/ml incubated for 24 hrs by Calgary biofilm device assay; format: functional; settings: dose 3.13 µg/ml
Staphylococcus aureus [5] = test: Synergistic antibacterial activity against ciprofloxacin-resistant Staphylococcus aureus 1199B overexpressing norA and harboring A116E grlA mutant assessed as fold reduction in ciprofloxacin MIC at 6.25 uM by broth microdilution method; format: functional
Staphylococcus aureus [6] = test: Synergistic antibacterial activity against Staphylococcus aureus K2378 overexpressing norA assessed as fold reduction in ciprofloxacin MIC at 0.2 to 12.5 ug/ml by checkerboard assay; format: functional; settings: dose 0.2-12.5 µg/ml
[7] = Cytotoxicity against human A549 cells assessed as cell viability at 3.13 ug/ml incubated for 24 hrs by MTT assay relative to control; format: toxicity, cell-based; settings: at 3.13 µg/mL, read-out: Activity
[8] = Cytotoxicity against human THP-1 cells assessed as cell viability incubated for 24 hrs by MTT assay; format: toxicity, cell-based
[9] = Cytotoxicity against human THP-1 cells assessed as cell viability at 12.5 ug/ml incubated for 24 hrs by MTT assay relative to control; format: toxicity, cell-based; settings: at 12.5 µg/mL, read-out: Activity
Staphylococcus aureus [10] = test: Antibacterial activity against ciprofloxacin-susceptible wild type Staphylococcus aureus 1199 assessed as inhibition of bacterial growth by broth microdilution method; format: functional
[11] = Cytotoxicity against human A549 cells assessed as cell viability at 12.5 ug/ml incubated for 24 hrs by MTT assay relative to control; format: toxicity, cell-based; settings: at 12.5 µg/mL, read-out: Activity
Staphylococcus aureus [12] = test: Synergistic antibiofilm activity against wild type Staphylococcus aureus 1199 assessed as biofilm eradication by measuring fold reduction in ciprofloxacin MBEC at 3.13 ug/ml incubated for 24 hrs by Calgary biofilm device assay; format: functional; settings: dose 3.13 µg/ml
Staphylococcus aureus [13] = test: Synergistic antibiofilm activity against Staphylococcus aureus 1199B overexpressing norA and harboring A116E grlA mutant assessed as biofilm eradication by measuring fold reduction in ciprofloxacin MBEC at 3.13 ug/ml incubated for 24 hrs by Calgary biofilm device assay; format: functional; settings: dose 3.13 µg/ml
Staphylococcus aureus [14] = test: Synergistic antibiofilm activity against Staphylococcus aureus 1199B overexpressing norA and harboring A116E grlA mutant assessed as biofilm eradication by measuring ciprofloxacin MBEC at 3.13 ug/ml incubated for 24 hrs by Calgary biofilm device assay; format: functional; settings: dose 3.13 µg/ml
Staphylococcus aureus [15] = test: Antibacterial activity against Staphylococcus aureus K2378 harbouring norA promoting and coding region assessed as inhibition of bacterial growth by broth microdilution method; format: functional
Staphylococcus aureus [16] = test: Antibacterial activity against norA deleted Staphylococcus aureus K1902 assessed as inhibition of bacterial growth by broth microdilution method; format: functional
Staphylococcus aureus [17] = test: Synergistic antibacterial activity against Staphylococcus aureus 1199B overexpressing norA and harboring A116E grlA mutant assessed as eight fold minimum potentiating concentration incubated in presence of ciprofloxacin by checkerboard assay; format: functional
[18] = Cytotoxicity against human THP-1 cells assessed as cell viability at 3.13 ug/ml incubated for 24 hrs by MTT assay relative to control; format: toxicity, cell-based; settings: at 3.13 µg/mL, read-out: Activity
Staphylococcus aureus [19] = test: Synergistic antibacterial activity against Staphylococcus aureus 1199B overexpressing norA and harboring A116E grlA mutant assessed as four fold minimum potentiating concentration incubated in presence of ciprofloxacin by checkerboard assay; format: functional
Staphylococcus aureus [20] = test: Synergistic bactericidal activity against Staphylococcus aureus 1199B overexpressing norA and harboring A116E grlA mutant assessed as reduction in bacterial count by measuring log reduction in colony forming count per ml at 6.25 ug/ml incubated for 4 hrs in presence of ciprofloxacin at 0.25 to 1 times MIC by time kill assay; format: functional; settings: dose 6.25 µg/ml
Staphylococcus aureus [21] = test: Synergistic bactericidal activity against Staphylococcus aureus 1199B overexpressing norA and harboring A116E grlA mutant assessed as reduction in bacterial count at 6.25 ug/ml incubated for 6 hrs in presence of ciprofloxacin at MIC by time kill assay; format: functional, organism-based; settings: dose 6.25 µg/ml
Staphylococcus aureus [22] = test: (§1) Potentiation of ciprofloxacin-induced antibacterial activity against Staphylococcus aureus 1199B overexpressing norA and harboring A116E grlA mutant assessed as time for post-antibiotic effect at 6.25 ug/ml preincubated for 1 hr followed by compound washout and measured after 5 hrs; format: functional; settings: dose 6.25 µg/ml
Staphylococcus aureus [23] = test: as §1, with “as” for “as time for”, “effect by measuring log reduction in colony forming unit per ml” for “effect”; format: functional; settings: dose 6.25 µg/ml
Staphylococcus aureus [24] = test: Synergistic antibiofilm activity against norA deleted Staphylococcus aureus K1902 assessed as biofilm eradication by measuring ciprofloxacin MBEC at 3.13 ug/ml incubated for 24 hrs by Calgary biofilm device assay; format: functional; settings: dose 3.13 µg/ml

SMILES: CCCOc1ccc(-c2cc(OCCN3CCCCC3)c3cc(C#N)ccc3n2)cc1
- inhibition (Staphylococcus aureus [1]): 77.8%

SMILES: CCCOc1ccc(-c2cc(OCCN3CCCCCC3)c3cc(C#N)ccc3n2)cc1
- inhibition (Staphylococcus aureus [2]): 86.8%
- inhibition (Staphylococcus aureus [1]): 84.2%
- MIC (Staphylococcus aureus [3]): > 582 µM

SMILES: CCCOc1ccc(-c2cc(OCCN3CCCCC3)c3cc(NCc4ccccc4)ccc3n2)cc1
- inhibition (Staphylococcus aureus [1]): 40.6%

SMILES: CCCOc1ccc(-c2cc(OCCN3CCCCCC3)c3cc(OC(C)C)ccc3n2)cc1
- inhibition (Staphylococcus aureus [1]): 75.3%

SMILES: CCCOc1ccc(-c2cc(OCCN3CCCCCC3)c3cc(Oc4ccccc4)ccc3n2)cc1
- inhibition (Staphylococcus aureus [2]): 66.8%
- inhibition (Staphylococcus aureus [1]): 83%
- MIC (Staphylococcus aureus [3]): > 503 µM

SMILES: CCCOc1ccc(-c2cc(OCCN(CC)CC)c3cc(SC)ccc3n2)cc1
- inhibition (Staphylococcus aureus [1]): 53.3%

SMILES: CCCOc1ccc(-c2cc(OCCN3CCCCC3)c3cc(Oc4ccccc4)ccc3n2)cc1
- MBEC (Staphylococcus aureus [4]): 0.07 µg/mL
- fold change (FC) (Staphylococcus aureus [5]): 8
- fold change (FC) (Staphylococcus aureus [6]): 4
- inhibition (Staphylococcus aureus [2]): 65.6%
- viability at 24 h, 3.13 ug/ml [7]: 100%
- CC50 at 24 h [8]: > 3.13 µg/mL
- viability at 24 h, 12.5 ug/ml [9]: 21.8%
- MIC (Staphylococcus aureus [10]): > 50 µg/mL
- viability at 24 h, 12.5 ug/ml [11]: 100%
- fold change (FC) (Staphylococcus aureus [12]): 286
- inhibition (Staphylococcus aureus [1]): 84.1%
- fold change (FC) (Staphylococcus aureus [13]): 512
- MBEC (Staphylococcus aureus [14]): 1.25 µg/mL
- MIC (Staphylococcus aureus [15]): > 50 µg/mL
- MIC (Staphylococcus aureus [16]): > 50 µg/mL
- MPC (Staphylococcus aureus [17]): 1.56 µg/mL
- MIC (Staphylococcus aureus [3]): > 50 µg/mL and > 518 µM
- viability at 24 h, 3.13 ug/ml [18]: 87.9%

SMILES: CCCOc1ccc(-c2cc(OCCN3CCCCC3)c3cc(OC(F)F)ccc3n2)cc1
- MBEC (Staphylococcus aureus [4]): 0.07 µg/mL
- fold change (FC) (Staphylococcus aureus [5]): >=8
- fold change (FC) (Staphylococcus aureus [6]): 4
- inhibition (Staphylococcus aureus [2]): 85%
- viability at 24 h, 3.13 ug/ml [7]: 100%
- CC50 at 24 h [8]: > 3.13 µg/mL
- viability at 24 h, 12.5 ug/ml [9]: 9.4%
- MIC (Staphylococcus aureus [10]): > 50 µg/mL
- MPC (Staphylococcus aureus [19]): 0.39 µg/mL
- viability at 24 h, 12.5 ug/ml [11]: 100%
- fold change (FC) (Staphylococcus aureus [12]): 286
- inhibition (Staphylococcus aureus [1]): 80.2%
- fold change (FC) (Staphylococcus aureus [13]): 512
- log(activity) (Staphylococcus aureus [20]): 3
- MBEC (Staphylococcus aureus [14]): 0.63 µg/mL
- MIC (Staphylococcus aureus [15]): 25 µg/mL (≈ 54.8 µM)
- MIC (Staphylococcus aureus [16]): 25 µg/mL (≈ 54.8 µM)
- Activity (Staphylococcus aureus [21]): Active
- Time (Staphylococcus aureus [22]): 1.2 h
- MPC (Staphylococcus aureus [17]): 0.78 µg/mL
- MIC (Staphylococcus aureus [3]): > 50 µg/mL and > 548 µM
- log(activity) (Staphylococcus aureus [23]): 1
- MBEC (Staphylococcus aureus [24]): 40 µg/mL
- viability at 24 h, 3.13 ug/ml [18]: 67.7%

SMILES: CCCOc1ccc(-c2cc(OCCN3CCCCCC3)c3cc(OC(F)F)ccc3n2)cc1
- inhibition (Staphylococcus aureus [1]): 70.7%

SMILES: CCCOc1ccc(-c2cc(OCCN(CC)CC)c3cc(OC(C)C)ccc3n2)cc1
- inhibition (Staphylococcus aureus [1]): 43.7%

SMILES: CCCOc1ccc(-c2cc(OCCN(CC)CC)c3cc(C(F)(F)F)ccc3n2)cc1
- inhibition (Staphylococcus aureus [1]): 73.5%

SMILES: CCCOc1ccc(-c2cc(OCCN(CC)CC)c3cc(OCCC)ccc3n2)cc1
- inhibition (Staphylococcus aureus [1]): 67.1%

SMILES: CCCOc1ccc(-c2cc(OCCN(CC)CC)c3cc(C#N)ccc3n2)cc1
- inhibition (Staphylococcus aureus [1]): 77.8%

SMILES: CCCOc1ccc(-c2cc(OCCN(CC)CC)c3cc(OC(F)F)ccc3n2)cc1
- inhibition (Staphylococcus aureus [1]): 71.9%

SMILES: CCCOc1ccc(-c2cc(OCCN3CCCCCC3)c3cc(SC)ccc3n2)cc1
- MBEC (Staphylococcus aureus [4]): 0.07 µg/mL
- fold change (FC) (Staphylococcus aureus [5]): 8
- fold change (FC) (Staphylococcus aureus [6]): 4
- inhibition (Staphylococcus aureus [2]): 81.1%
- viability at 24 h, 3.13 ug/ml [7]: 100%
- CC50 at 24 h [8]: > 3.13 µg/mL
- viability at 24 h, 12.5 ug/ml [9]: 19.9%
- MIC (Staphylococcus aureus [10]): > 50 µg/mL
- viability at 24 h, 12.5 ug/ml [11]: 100%
- fold change (FC) (Staphylococcus aureus [12]): 286
- inhibition (Staphylococcus aureus [1]): 81.2%
- fold change (FC) (Staphylococcus aureus [13]): 512
- MBEC (Staphylococcus aureus [14]): 1.25 µg/mL
- MIC (Staphylococcus aureus [15]): > 50 µg/mL
- MIC (Staphylococcus aureus [16]): > 50 µg/mL
- MPC (Staphylococcus aureus [17]): 1.56 µg/mL
- MIC (Staphylococcus aureus [3]): > 50 µg/mL and 69.5 µM
- viability at 24 h, 3.13 ug/ml [18]: 68.8%
